How the values were obtained:
Slug promoter = experiment: ChIP assay on the Slug promoter, H1299 cells; assay type: cell-based, human; details: vs Scr
From the text: Fig. 6 Nt-acetylation of histone H4 antagonizes phosphorylation of histone H4 serine 1 to regulate Slug expression. a Western blot analysis of indicated histone H4 modifications in Scr and NatD-KD H1299 cells. Histone H4 served as a loading control. b ChIP analysis of the enrichment of indicated histone H4 modifications on the Slug promoter in Scr and NatD-KD H1299 cells. IgG served as a negative control. Results are shown as mean ± s.d. from three independent experiments; two-tailed Student’s t-test, *P < 0.05, **P < 0.01 compared with the Scr control. c ChIP analysis of the enrichment of H3K4me3 and H3K27me3 on the Slug promoter in Scr and NatD-KD H1299 cells. IgG served as a negative control. Results are shown as mean ± s.d. from three independent experiments; two-tailed Student’s t-test, **P < 0.01 compared with the Scr control. d Western blot analysis of indicated proteins from H1299 cells overexpressing NatDΔ or wild-type NatD. Histone H4 served as a loading control. e ChIP analysis of the enrichment of Nt-ac-H4 and H4S1ph on Slug promoter in H1299 cells overexpressing NatDΔ or wild-type NatD. IgG served as a negative control. Results are shown as mean ± s.d. from three independent experiments; two-tailed Student’s t-test, *P < 0.05, **P < 0.01 compared with the wild-type control
Fig. 7 Downregulation of Nt-acetylation of histone H4 facilitates nuclear accumulation of CK2α and its binding to histone H4 in lung cancer cells. a Representative confocal scanning images of CK2α localization in Scr and H1299 cells (left panel). The staining intensity of CK2α was quantified by software ImageJ from NIH (right diagram). Scale bars, 5 μm. […] Equal peptide biotinylated on C terminus is shown by dot blot analysis with streptavidin (middle panel). […] IgG served as a negative control. Results are shown as mean ± s.d. from three independent experiments; two-tailed Student’s t-test, **P < 0.01 compared with the indicated control. g Quantitative real-time PCR analysis of mRNA levels of CK2α and Slug normalized to GAPDH in Scr and NatD-KD H1299 cells in the absence or presence of siRNA to CK2α. NC, siRNA mimics negative control. Data are mean ± s.d. of three independent experiments; Student’s t-test, *P < 0.05, **P < 0.01 compared with the indicated control. h Western blot analysis of indicated proteins from Scr and NatD-KD H1299 cells in the absence or presence of siRNA to CK2α.
ChIP assays were performed with H1299 cells in accordance with standard protocols. Normal rabbit IgG served as the control. ChIP samples were analyzed by quantitative real-time PCR using the FastStart Universal SYBR Green Master (Roche). A standard curve was prepared for each set of primers using serial titration of the input DNA. The percentage of ChIP DNA was calculated relative to the input DNA from primer-specific standard curves using the Rotor-Gene 6000 Series Software 1.7. The primer sequences for ChIP are listed in Supplementary Table 4. Antibodies used were: H4S1ph (Abcam; ab14723), H4K5ac (Millipore; CS204381), H4R3me2a (Active Motif; 39705), H4R3me2s (Abcam; ab5823), CK2α (Abcam; ab70774), H3K4me3 (Abcam; ab8580), and H3K27me3 (Abcam; ab6002).

A549 cells = experiment: Orthotopic implantation in nude mice, A549 cells; assay type: in vivo, human; details: pleural cavity, 21 days, n = 6, vs Scr
Method: All animal care and handling procedures were performed in accordance with the National Institutes of Health Guide for the Care and Use of Laboratory Animals, and were approved by the Institutional Review Board of Nanjing University (Nanjing, China). Female SCID mice and C57BL/6 mice (6–8 week old) were purchased from the Model Animal Research Center of Nanjing University (Nanjing, China), and were maintained under specific pathogen-free conditions at Nanjing University. The sample size was chosen with adequate power on the basis of the literature and our previous experience[46] and for each experiment it is indicated in the figure legend. […] Lung nodules and progression were monitored and quantified using the bioluminescence system (Caliper IVIS Lumina XR) or by counting under a dissecting microscope. […] Mice were killed at day 28 or day 30 to collect lungs, and lung nodules in serial sections were quantified microscopically. […] Lung nodules and progression were monitored and quantified using the bioluminescence system (Caliper IVIS Lumina XR). Mice were killed at day 14 or day 21 to collect lungs, and lung nodules in serial sections were quantified microscopically. […]
Supplementary Figure 9. […] (right) Relative BLI signals of lung tumors of corresponding mice (n = 6 for each group) recorded on day 3 and day 21. […]

In the case of “NatD-KD2: Human NatD shRNA KD2: 5′-GGTTGAATGTCTCCATTGA-3′, lentiviral (shRNA lentiviral)”, the “enrichment of CK2α on Slug promoter” value (Slug promoter) is reported as “significantly increased”, the “enrichment of H3K4me3 on Slug promoter” value (Slug promoter) is reported as “significantly reduced” and the “enrichment of H3K27me3 on Slug promoter” value (Slug promoter) is reported as “increased”. The “enrichment of H4R3me2a and H4K5ac on Slug promoter” value (Slug promoter) was “significantly reduced”, the “enrichment of H4R3me2s on Slug promoter” value (Slug promoter) was “unchanged” and the “enrichment of H4S1ph on Slug promoter” value (Slug promoter) was “significantly increased”. For the same substance, the “enrichment of Nt-ac-H4 on Slug promoter” value (Slug promoter) was “significantly reduced” and the “migration and invasion, orthotopic model” value (A549 cells) was “significantly reduced”.
